From ChEMBL document CHEMBL4261572, “Design, synthesis and biological evaluation of tacrine-1,2,3-triazole derivatives as potent cholinesterase inhibitors” (Medchemcomm, 2018) come the findings set out here.

A value given as a limit tells only on which side of the number the result lay.

Test [1] deals with T1, Acetylcholinesterase (Rattus norvegicus, UniProt P37136).
T1 sequence (P37136 whole entry): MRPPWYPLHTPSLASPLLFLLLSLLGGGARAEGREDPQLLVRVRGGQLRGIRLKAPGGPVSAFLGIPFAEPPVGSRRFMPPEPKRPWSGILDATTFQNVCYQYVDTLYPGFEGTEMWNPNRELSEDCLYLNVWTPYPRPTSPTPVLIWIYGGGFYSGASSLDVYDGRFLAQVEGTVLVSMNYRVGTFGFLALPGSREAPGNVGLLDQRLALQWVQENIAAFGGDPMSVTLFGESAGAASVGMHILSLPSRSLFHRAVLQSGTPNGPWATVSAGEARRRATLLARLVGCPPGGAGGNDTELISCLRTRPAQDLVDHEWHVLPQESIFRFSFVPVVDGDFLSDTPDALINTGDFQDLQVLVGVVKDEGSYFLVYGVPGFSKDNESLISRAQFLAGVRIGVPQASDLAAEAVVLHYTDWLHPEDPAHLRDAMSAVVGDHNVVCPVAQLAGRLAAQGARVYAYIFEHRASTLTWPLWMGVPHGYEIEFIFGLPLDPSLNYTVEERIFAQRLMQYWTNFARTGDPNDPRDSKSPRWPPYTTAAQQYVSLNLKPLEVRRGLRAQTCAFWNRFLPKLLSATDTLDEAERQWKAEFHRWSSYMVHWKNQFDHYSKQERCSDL
The test can be described thus: Inhibition of rat brain AChE using acetylthiocholine iodide as substrate measured after 8 mins in presence of BChE inhibitor ethopropazine by Ellman's method.

The next test has as its target Butyrylcholinesterase (Rattus norvegicus, UniProt Q9JKC1). The test can be described thus: Inhibition of rat serum BChE using butyrylthiocholine iodide as substrate measured after 8 mins in presence of AChE inhibitor BW284c51 by Ellman's method.
Test [2] concerns the target Acetylcholinesterase (Homo sapiens, UniProt P22303). The test can be described thus: Inhibition of AChE (unknown origin).
The target in test [3] is Cholinesterase (Homo sapiens, UniProt P06276). The test can be described thus: Inhibition of BChE (unknown origin).
Cholinesterase (Homo sapiens, UniProt P06276), sequence (P06276 whole entry): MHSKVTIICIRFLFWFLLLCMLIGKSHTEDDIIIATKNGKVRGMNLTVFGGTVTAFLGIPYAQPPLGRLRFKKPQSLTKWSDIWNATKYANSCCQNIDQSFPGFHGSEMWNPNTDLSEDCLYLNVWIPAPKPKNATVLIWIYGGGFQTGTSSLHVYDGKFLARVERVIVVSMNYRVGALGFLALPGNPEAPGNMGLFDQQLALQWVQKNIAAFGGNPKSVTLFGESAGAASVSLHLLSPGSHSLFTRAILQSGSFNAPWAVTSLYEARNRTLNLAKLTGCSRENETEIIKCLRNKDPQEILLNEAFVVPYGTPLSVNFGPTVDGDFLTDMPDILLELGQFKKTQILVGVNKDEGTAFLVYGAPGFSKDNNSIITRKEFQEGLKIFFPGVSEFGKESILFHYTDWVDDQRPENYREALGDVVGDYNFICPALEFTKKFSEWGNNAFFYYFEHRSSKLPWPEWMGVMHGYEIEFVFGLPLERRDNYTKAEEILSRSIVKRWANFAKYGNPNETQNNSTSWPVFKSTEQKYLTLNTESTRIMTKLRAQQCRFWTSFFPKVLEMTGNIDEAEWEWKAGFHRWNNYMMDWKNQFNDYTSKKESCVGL
Test [4] has as its target Acetylcholinesterase (Electrophorus electricus, UniProt O42275). The test can be described thus: Inhibition of electric eel AChE after 15 mins by DTNB reagent based assay.
Test [5] has as its target Cholinesterase (Equus caballus, UniProt P81908). As to the kind of experiment: Inhibition of horse serum BChE after 15 mins by DTNB reagent based assay.
Test [6] addresses T1, Acetylcholinesterase. As to the kind of experiment: Inhibition of rat brain AChE.
A short description of test [7]: Selectivity ratio of compound effect for inhibition of horse serum BChE to compound effect for inhibition of electric eel AChE.

Cholinesterase (Equus caballus, UniProt P81908), sequence (P81908 whole entry): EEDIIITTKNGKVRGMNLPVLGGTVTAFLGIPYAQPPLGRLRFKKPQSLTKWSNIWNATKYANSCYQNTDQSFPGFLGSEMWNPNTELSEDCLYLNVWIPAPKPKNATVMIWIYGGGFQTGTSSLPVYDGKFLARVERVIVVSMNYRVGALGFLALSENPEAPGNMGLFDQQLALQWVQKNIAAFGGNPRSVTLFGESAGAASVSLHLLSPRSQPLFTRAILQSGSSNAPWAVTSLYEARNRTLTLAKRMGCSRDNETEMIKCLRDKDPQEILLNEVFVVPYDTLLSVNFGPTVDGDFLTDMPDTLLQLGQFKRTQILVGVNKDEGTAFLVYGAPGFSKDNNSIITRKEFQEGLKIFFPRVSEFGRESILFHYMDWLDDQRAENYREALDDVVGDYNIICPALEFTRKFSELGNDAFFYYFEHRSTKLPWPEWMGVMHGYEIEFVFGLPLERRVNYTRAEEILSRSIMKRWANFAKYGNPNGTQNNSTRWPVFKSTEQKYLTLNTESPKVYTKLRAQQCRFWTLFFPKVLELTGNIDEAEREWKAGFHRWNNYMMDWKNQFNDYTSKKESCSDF
Acetylcholinesterase (Electrophorus electricus, UniProt O42275), sequence (O42275 whole entry): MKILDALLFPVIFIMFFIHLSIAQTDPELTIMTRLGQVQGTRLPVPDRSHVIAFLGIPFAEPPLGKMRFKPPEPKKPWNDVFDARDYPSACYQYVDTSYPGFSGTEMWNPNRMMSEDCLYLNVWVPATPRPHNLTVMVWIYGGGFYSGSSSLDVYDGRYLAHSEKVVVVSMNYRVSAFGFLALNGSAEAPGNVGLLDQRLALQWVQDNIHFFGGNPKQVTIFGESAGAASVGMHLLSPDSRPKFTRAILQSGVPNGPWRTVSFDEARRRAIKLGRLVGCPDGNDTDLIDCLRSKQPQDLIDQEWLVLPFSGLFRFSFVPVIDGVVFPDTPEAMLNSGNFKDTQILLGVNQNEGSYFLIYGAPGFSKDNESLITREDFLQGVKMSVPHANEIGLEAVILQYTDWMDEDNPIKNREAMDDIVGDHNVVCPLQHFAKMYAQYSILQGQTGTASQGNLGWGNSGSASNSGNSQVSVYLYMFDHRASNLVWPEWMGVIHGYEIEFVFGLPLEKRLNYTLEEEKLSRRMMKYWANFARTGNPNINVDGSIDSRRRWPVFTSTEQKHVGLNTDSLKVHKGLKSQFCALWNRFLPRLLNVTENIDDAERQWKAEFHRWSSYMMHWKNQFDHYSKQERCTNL
Butyrylcholinesterase, sequence (Q9JKC1 whole entry): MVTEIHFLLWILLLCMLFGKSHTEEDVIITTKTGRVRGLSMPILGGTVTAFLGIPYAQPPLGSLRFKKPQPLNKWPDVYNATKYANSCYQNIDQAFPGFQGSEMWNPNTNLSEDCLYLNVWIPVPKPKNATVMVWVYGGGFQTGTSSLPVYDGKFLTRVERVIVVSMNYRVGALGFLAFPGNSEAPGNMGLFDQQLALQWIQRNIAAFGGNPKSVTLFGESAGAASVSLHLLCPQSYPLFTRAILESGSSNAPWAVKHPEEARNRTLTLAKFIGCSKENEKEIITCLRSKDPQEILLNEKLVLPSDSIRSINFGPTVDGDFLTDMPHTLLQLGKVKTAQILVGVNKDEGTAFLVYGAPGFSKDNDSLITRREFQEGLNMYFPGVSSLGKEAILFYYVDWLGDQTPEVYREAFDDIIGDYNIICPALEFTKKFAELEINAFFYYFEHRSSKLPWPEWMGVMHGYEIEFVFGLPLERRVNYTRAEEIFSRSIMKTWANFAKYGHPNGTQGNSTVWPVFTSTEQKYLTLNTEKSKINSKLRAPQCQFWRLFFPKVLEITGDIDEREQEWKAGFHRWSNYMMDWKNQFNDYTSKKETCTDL
Acetylcholinesterase (Homo sapiens, UniProt P22303), sequence (P22303 whole entry): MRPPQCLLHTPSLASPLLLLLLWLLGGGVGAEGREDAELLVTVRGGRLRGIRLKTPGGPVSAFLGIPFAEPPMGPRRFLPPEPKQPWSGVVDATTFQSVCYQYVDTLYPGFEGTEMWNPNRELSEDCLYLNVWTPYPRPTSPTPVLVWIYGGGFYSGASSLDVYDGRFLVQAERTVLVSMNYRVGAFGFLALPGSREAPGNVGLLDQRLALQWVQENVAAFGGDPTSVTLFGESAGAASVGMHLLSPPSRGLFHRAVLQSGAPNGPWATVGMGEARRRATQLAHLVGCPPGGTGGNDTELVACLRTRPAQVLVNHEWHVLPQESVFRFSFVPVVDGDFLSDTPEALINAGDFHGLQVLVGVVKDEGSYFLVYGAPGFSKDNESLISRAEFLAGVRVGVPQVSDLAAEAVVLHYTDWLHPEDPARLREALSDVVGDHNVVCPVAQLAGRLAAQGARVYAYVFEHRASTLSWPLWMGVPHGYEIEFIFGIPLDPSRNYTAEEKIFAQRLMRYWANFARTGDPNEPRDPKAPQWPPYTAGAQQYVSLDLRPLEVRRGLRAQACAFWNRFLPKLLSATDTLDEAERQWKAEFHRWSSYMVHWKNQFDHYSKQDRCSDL

As a reminder, the IC50 is the concentration needed to halve the response being measured. On to `C1=CCc2c(nc3ccccc3c2NCCCCCCCCNc2ccnc3ccccc23)C1`, for which the IC50 on Acetylcholinesterase [1] came out at 8.8 nM; at Butyrylcholinesterase, 126 nM.

With `CCN(CC)c1ccc(/C=C/c2cc(N3CCCCC3)c3ccccc3n2)cc1`, the IC50 against Acetylcholinesterase [2] came out at 64.1 µM; against Cholinesterase [3] it was 200 nM.

Turning to `CN(CCCC(=O)N1CCN(c2c3c(nc4ccccc24)CCCC3)CC1)Cc1cn(-c2ccnc3cc(Cl)ccc23)nn1`, the IC50 on Acetylcholinesterase [4] is greater than 100 µM; at Cholinesterase [5], 61.1 µM.

`C#CCN(C)Cc1ccc(OC(=O)N(C)C)c2ncccc12` came in with an IC50 against Acetylcholinesterase [6] of 500 nM.

For the molecule `O=C(CCCCc1cn(-c2ccnc3cc(Cl)ccc23)nn1)N1CCN(c2c3c(nc4ccccc24)CCCC3)CC1`, the values for the IC50 at Acetylcholinesterase [4] and on Cholinesterase [5] were 11.1 µM and greater than 100 µM, respectively.

For the molecule `Clc1ccc2c(-n3cc(CCCCN4CCN(c5c6c(nc7cc(Cl)ccc57)CCCC6)CC4)nn3)ccnc2c1`, the IC50 at Acetylcholinesterase [4] was 19.6 µM; at Cholinesterase [5], greater than 100 µM.

`O=C(CCCCc1cn(-c2ccnc3cc(Cl)ccc23)nn1)N1CCN(c2c3c(nc4cc(Cl)ccc24)CCCC3)CC1`: the IC50 was 18.7 µM against Acetylcholinesterase [4] and greater than 100 µM against Cholinesterase [5].

As for `Clc1ccc2c(-n3cc(CCCN4CCN(c5c6c(nc7ccccc57)CCCC6)CC4)nn3)ccnc2c1`, the results for the IC50 on Acetylcholinesterase [4] and at Cholinesterase [5] were 4.89 µM and 3.61 µM, respectively.

Consider `O=C(CCCCc1cn(-c2ccnc3cc(Cl)ccc23)nn1)NCCNc1c2c(nc3cc(Cl)ccc13)CCCC2`, for which the IC50 on Acetylcholinesterase [4] was greater than 100 µM; on Cholinesterase [5], 6.06 µM. In addition, in test [7], the Selectivity ratio was found to be 2.

Take `Clc1ccc2c(-n3cc(CCCCN4CCN(c5c6c(nc7ccccc57)CCCC6)CC4)nn3)ccnc2c1`: the IC50 at Acetylcholinesterase [4] came to 10 µM; against Cholinesterase [5] it was 66.7 µM.
